Laboratory results published in patent US20210029993A1, “SPATIAL INHIBITORS, DETERRENTS AND REPELLENTS FOR MOSQUITOES AND MIDGES” (BEDOUKIAN RESEARCH, INC., priority 2005, published 2021).

How the values were obtained:
Format in all cases: in vivo
biting midges = assay: Spatial inhibition of biting midges, outdoor trap catch; details: control trap = 100% catch, lower = more inhibition
Protocol: Two grams of test compound is absorbed onto pieces of absorbent material. These pieces of absorbent material (fragrance release material from Rhopore Inc.) containing absorbed test compound are then placed in a stream of CO2 and r-octenol being released from a biting midges biting midge trap designed to attract biting midges. The test are rotated over a period of 2-5 days in such a manner that both control (trap without test compound) and test compound are tested an equal number of times in each trap employed. The number of biting midges caught in the traps with test compounds is compared to the number of biting midges caught in the trap with no test compound material present. […] Thus, a lowered percentage is indicative of the increasing ability of the test compounds to inhibit the ability of the biting midges sense the target. In Table 6, weight percent (wt %) refers to the weight of the deterring/repelling/inhibiting compound, or combination of compounds, in the composition used in the tests. In the “Percent Caught Relative to Control” column in Table 6, a lower percentage is indicative of the increasing ability of the test compounds to inhibit the ability of the biting midges to sense the target. The weight ratio of the compounds in the combination of compounds is given in parentheses in the “Compound(s)” column of Table 6.

[1] = tested on: female biting midges (Culicoides impunctatus); assay: Biting midges flying test (Plexiglas module); details: control = 1, higher = more inhibitor activity
Protocol: The following tests are employed to illustrate the efficacy of the compounds of this disclosure to effectively act as biting midge deterrents, repellents or as spatial inhibitors for biting midges. […] Biting midges are tested in a two-piece Plexiglas module designed to assess their response to feeding deterrents. […] Water (40° C.) flows through the central cavity of the platform at a rate of 215 ml/min. The top piece of the module consists of six 4.5×4.0×5.0 cm chambers, the floors of which are fitted with a sliding door positioned over a circular opening 3.5 cm in diameter. Biting midges are introduced through an aperture 1 cm in diameter on the front wall of the chambers. For each test, five female biting midges (Culicoides impunctatus) are aspirated into each of five chambers of the top module piece and the apertures are plugged with corks wrapped in plastic film. […] To each well, 77.5 μl of green dye (McCormick Food, Hunt Valley, Md.) are added so that those biting midges imbibing the sugar solution can be identified when crushed at the end of the tests. Each membrane receives 50 μl of acetone or experimental compound solution, applied to 9.6 cm^2 circular area on 0.1 mm-thick membranes made of nylon mesh in a silicone matrix. The membranes are then placed over each well in contact with the sugar solution. The circular openings on the floor of each chamber of the top piece of the module are aligned with each membrane-covered well of the bottom piece. The sliding floors of the chambers are then opened allowing biting midges access to the membranes. The number of biting midges landing on the membranes, and those flying within the apparatus, are recorded each minute for five minutes. After five minutes, any biting midges remaining on the membranes are removed with a metal wire, and the door of the floor of each chamber is closed. The top piece of the module is then placed into a freezer for 20 minutes. In the test designed to assess feeding, biting midges are removed from the frozen module, crushed on white paper towels, and examined for the presence of green dye to indicate that feeding had occurred. The proportions of biting midges feeding per trial are analyzed using a standard generalized linear model with a logit link. Landing and flying scores are repeated measures; five readings are obtained for groups of five biting midges. Thus, to maintain independence among the data, the five readings are summed, and then the sums divided by 25 (the maximum score in each category) to create proportions of biting midges landing and flying. The proportions are then transferred using the standard variance stabilizing transformation for proportions (sin^−1 √y, where y is the proportion), and analyzed using ANOVA (Analysis of Variables). In Table 5, weight percent (wt %) refers to the weight of the deterring/repelling/inhibiting compound, or combination of compounds, in the composition used in the tests. […] The weight ratio of the compounds in the combination of compounds is given in parentheses in the “Compound(s)” column of Table 5.

[2] = tested on: female biting midges (Culicoides impunctatus); assay: Biting midges feeding test (Plexiglas module, treated membrane); details: control = 1.00, lower = more repellent
Protocol: The following tests are employed to illustrate the efficacy of the compounds of this disclosure to effectively act as biting midge deterrents, repellents or as spatial inhibitors for biting midges. […] Biting midges are tested in a two-piece Plexiglas module designed to assess their response to feeding deterrents. […] Water (40° C.) flows through the central cavity of the platform at a rate of 215 ml/min. The top piece of the module consists of six 4.5×4.0×5.0 cm chambers, the floors of which are fitted with a sliding door positioned over a circular opening 3.5 cm in diameter. Biting midges are introduced through an aperture 1 cm in diameter on the front wall of the chambers. For each test, five female biting midges (Culicoides impunctatus) are aspirated into each of five chambers of the top module piece and the apertures are plugged with corks wrapped in plastic film. […] To each well, 77.5 μl of green dye (McCormick Food, Hunt Valley, Md.) are added so that those biting midges imbibing the sugar solution can be identified when crushed at the end of the tests. Each membrane receives 50 μl of acetone or experimental compound solution, applied to 9.6 cm^2 circular area on 0.1 mm-thick membranes made of nylon mesh in a silicone matrix. The membranes are then placed over each well in contact with the sugar solution. The circular openings on the floor of each chamber of the top piece of the module are aligned with each membrane-covered well of the bottom piece. The sliding floors of the chambers are then opened allowing biting midges access to the membranes. The number of biting midges landing on the membranes, and those flying within the apparatus, are recorded each minute for five minutes. After five minutes, any biting midges remaining on the membranes are removed with a metal wire, and the door of the floor of each chamber is closed. The top piece of the module is then placed into a freezer for 20 minutes. In the test designed to assess feeding, biting midges are removed from the frozen module, crushed on white paper towels, and examined for the presence of green dye to indicate that feeding had occurred. The proportions of biting midges feeding per trial are analyzed using a standard generalized linear model with a logit link. Landing and flying scores are repeated measures; five readings are obtained for groups of five biting midges. Thus, to maintain independence among the data, the five readings are summed, and then the sums divided by 25 (the maximum score in each category) to create proportions of biting midges landing and flying. The proportions are then transferred using the standard variance stabilizing transformation for proportions (sin^−1 √y, where y is the proportion), and analyzed using ANOVA (Analysis of Variables). In Table 4, weight percent (wt %) refers to the weight of the deterring/repelling/inhibiting compound, or combination of compounds, in the composition used in the tests. […] The weight ratio of the compounds in the combination of compounds is given in parentheses in the “Compound(s)” column of Table 4.

[3] = 92.5 wt % compound(s) in composition
[4] = 90 wt % compound(s) in composition
[5] = 77.5 wt % compound(s) in composition
[6] = 80 wt % compound(s) in composition
[7] = 82.5 wt % compound(s) in composition
[8] = 87.5 wt % compound(s) in composition
[9] = 95 wt % compound(s) in composition
[10] = 85 wt % compound(s) in composition

With CC(C)=CCCC(C)CC=O (stereo not drawn) [Citronellal] as the compound, how does the “Percent Caught Relative To Control” value (biting midges; [3]) read?
Its value is 12%.

And the “Flying Relative To Control” value [1, 3]?
The value was 1.95.

What about the “Feeding Relative To Control” value [2, 3] of the same compound?
Its value is 0.64.

With CC1=CCC(O)(C(C)C)CC1 (stereo not drawn) [Terpinen-4-ol] as the compound, how does the “Percent Caught Relative To Control” value (biting midges; [4]) read?
Its value is 21%.

And the “Flying Relative To Control” value [1, 4]?
The value was 1.6.

And the “Feeding Relative To Control” value [2, 4]?
The value was 0.74.

Which “Percent Caught Relative To Control” value (biting midges; [5]) does the source give for C=C(C)[C@H]1CC=C(C)C(=O)C1 [d-Carvone] here?
Its value is 13%.

What about the “Flying Relative To Control” value [1, 5] of the same compound?
Its value is 1.55.

What about the “Feeding Relative To Control” value [2, 5] of the same compound?
Its value is 0.65.

With C=C(C)[C@@H]1CC=C(C)[C@@H](O)C1 (relative stereo) [trans-Carveol] as the compound, how does the “Percent Caught Relative To Control” value (biting midges; [5]) read?
The value was 22%.

What about the “Flying Relative To Control” value [1, 5] of the same compound?
The value was 1.5.

And the “Feeding Relative To Control” value [2, 5]?
The value was 0.63.

With C=C[C@@](C)(O)CCC=C(C)C [d-Linalool, reference compound] as the compound, how does the “Percent Caught Relative To Control” value (biting midges; [6]) read?
The value was 6%.

And the “Flying Relative To Control” value [1, 6]?
The value was 1.35.

What about the “Feeding Relative To Control” value [2, 6] of the same compound?
Its value is 0.31.

How did the “Percent Caught Relative To Control” value (biting midges; [7]) turn out when l-Carvone was run?
Its value is 12%.

What about the “Flying Relative To Control” value [1, 7] of the same compound?
Its value is 1.65.

And the “Feeding Relative To Control” value [2, 7]?
Its value is 0.62.

Which results are given for CC(C)=CCCC(C)CCO (stereo not drawn) [Citronellol]?
Percent Caught Relative To Control (biting midges; [8]): 12%; Flying Relative To Control [1, 8]: 1.5; Feeding Relative To Control [2, 8]: 0.64

With CC(C)[C@@H]1CC[C@@H](C)C(=O)C1 [Tetrahydrocarvone] as the compound, how does the “Percent Caught Relative To Control” value (biting midges; [9]) read?
The value was 25%.

And the “Flying Relative To Control” value [1, 9]?
The value was 1.7.

And the “Feeding Relative To Control” value [2, 9]?
The value was 0.72.

CC1=CCC(C(C)(C)O)CC1 (stereo not drawn) [α-terpineol] was tested. Which “Percent Caught Relative To Control” value (biting midges; [4]) did it give?
Its value is 16%.

What about the “Flying Relative To Control” value [1, 4] of the same compound?
Its value is 1.5.

And the “Feeding Relative To Control” value [2, 4]?
Its value is 0.80.

Which results are given for Cc1ccc(C(C)(C)O)cc1?
Percent Caught Relative To Control (biting midges; [6]): 25%; Flying Relative To Control [1, 6]: 1.2; Feeding Relative To Control [2, 6]: 0.73

For C=CC(C)(CCC=C(C)C)OC(C)=O (stereo not drawn) [Linaloyl acetate], which “Percent Caught Relative To Control” value (biting midges; [9]) is on record?
Its value is 16%.

What about the “Flying Relative To Control” value [1, 9] of the same compound?
Its value is 1.2.

And the “Feeding Relative To Control” value [2, 9]?
Its value is 0.72.

Which results are given for C=C(C)[C@@H]1CC=C(C)[C@H](O)C1 (relative stereo) [cis-Carveol]?
Percent Caught Relative To Control (biting midges; [10]): 24%; Flying Relative To Control [1, 10]: 1.25; Feeding Relative To Control [2, 10]: 0.67

Which results are given for C=C(C)C1CCC2(C)OC2C1 (single isomer, unassigned; (-)) [(−) Limonene oxide]?
Percent Caught Relative To Control (biting midges; [3]): 16%; Flying Relative To Control [1, 3]: 1.15; Feeding Relative To Control [2, 3]: 0.75

With CC(=O)OC/C=C(/C)CCC=C(C)C [Neryl acetate] as the compound, how does the “Percent Caught Relative To Control” value (biting midges; [5]) read?
Its value is 20%.

And the “Flying Relative To Control” value [1, 5]?
Its value is 2.5.

And the “Feeding Relative To Control” value [2, 5]?
The value was 0.72.

How did the “Percent Caught Relative To Control” value (biting midges; [8]) turn out when (+) Limonene oxide was run?
The value was 19%.

And the “Flying Relative To Control” value [1, 8]?
Its value is 0.95.

What about the “Feeding Relative To Control” value [2, 8] of the same compound?
The value was 0.77.

For CC(=O)OC/C=C(\C)CCC=C(C)C [Geranyl acetate], which “Percent Caught Relative To Control” value (biting midges; [10]) is on record?
The value was 29%.

And the “Flying Relative To Control” value [1, 10]?
Its value is 1.5.

And the “Feeding Relative To Control” value [2, 10]?
The value was 0.64.

How did the “Percent Caught Relative To Control” value (biting midges; [6]) turn out when CC(=O)OCCC(C)CCC=C(C)C (stereo not drawn) [Citronellyl acetate] was run?
Its value is 25%.

What about the “Flying Relative To Control” value [1, 6] of the same compound?
The value was 1.25.

And the “Feeding Relative To Control” value [2, 6]?
Its value is 0.67.

Which “Percent Caught Relative To Control” value (biting midges; [7]) does the source give for CC(C)=CCCC(C)=CC=O [Citral] here?
The value was 12%.

And the “Flying Relative To Control” value [1, 7]?
Its value is 2.15.

What about the “Feeding Relative To Control” value [2, 7] of the same compound?
The value was 0.60.
